What was measured:
CHRC5 cell line [1] = test system: CHRC5 cell line
Description: Collateral sensitivity of CHRC5 cells to local anesthetics/steroids as log of ratio of molar concentration of drug inducing 50% growth inhibition in CHO AUXB1 cells to that of CHRC5 cells

physchem = conditions: octanol/water, pH 7.4
CHRC5 cell line [2] = assay type: functional, Cricetulus griseus
Description: Effect on collateral sensitivity of CHRC5 cells to local anesthetics/steroids.

L1210 [3] = assay: Cross resistance to the compound expressed as as log of ratio of molar concentration of drug inducing 50% inhibition of growth in murine leukemia L1210/R71 and L1210/0 cells; assay type: functional, Mus musculus
CCRF-CEM [4] = assay: Effect on cross resistance of CCRF-CEM cells resistant to vincristine.; assay type: functional, Homo sapiens
L1210 [5] = test system: L1210
Description: (§1) Cross resistance profile versus L1210/R71 cells.

CHO [6] = assay: Effect on cross resistance of chinese hamster ovary CHO cells resistant to colchicine (CHRC5); assay type: functional, Cricetulus griseus
CHO [7] = assay: Cross resistance of chinese hamster cells resistant to actinomycin D as log of ratio of molar concentration of compound inducing 50% inhibition of growth in resistant and sensitive cells; assay type: functional, Cricetulus griseus
L1210 [8] = conditions: Mus musculus
Description: as §1

CHO [9] = conditions: Cricetulus griseus
Description: (§2) Effect on cross resistance of CHO cells resistant to colchicine (CHRC5)

[10] = octanol/water, pH 7.4
CCRF-CEM [11] = assay: Effect on cross resistance of CCRF-CEM cells resistant to vincristine expressed as as log of ratio of molar concentration of compound inducing 50% growth inhibition in resistant to sensitive cells; assay type: functional, Homo sapiens
CHO [12] = test system: CHO
Description: as §2

L1210 [13] = assay: Cross resistance to the compound expressed as log of ratio of molar concentration of drug inducing 50% inhibition of growth in murine leukemia L1210/R71 and L1210/0 cells; assay type: functional, Mus musculus
CCRF-CEM [14] = assay: Effect on cross resistance of CCRF-CEM cells resistant to vincristine expressed as log of ratio of molar concentration of compound inducing 50% growth inhibition in resistant to sensitive cells; assay type: functional, Homo sapiens

CCN(CC)CCOC(=O)c1ccc(N)cc1 [PROCAINE]
Log sensitivity (CHRC5 cell line [1]): 0.4 | logD (physchem): 0.3

CCCC[N+](CCCC)(CCCC)CCCC.[Br-] [TETRABUTYLAMMONIUM BROMIDE]
Log sensitivity (CHRC5 cell line [2]): -0.84 | logD (physchem): -3

CCc1nc(N)nc(N)c1-c1ccc(Cl)c(Cl)c1 [ETOPRINE]
Log CR (L1210 [3]): 1.69 | logD (physchem): 2.93

COc1cc2cc(c1Cl)N(C)C(=O)C[C@H](OC(=O)[C@H](C)N(C)C(C)=O)[C@]1(C)O[C@H]1[C@H](C)[C@@H]1C[C@@](O)(NC(=O)O1)[C@H](OC)/C=C/C=C(\C)C2 [MAYTANSINE]
Log CR (CCRF-CEM [4]): 2.85 | Log CR (L1210 [5]): 1.23

CC[C@H]1CN2CCc3cc(OC)c(OC)cc3[C@@H]2C[C@@H]1C[C@H]1NCCc2cc(OC)c(OC)cc21 [EMETINE]
Log CR (CHO [6]): 1.46 | logD (physchem): 3.24

CN(Cc1cnc2nc(N)nc(N)c2n1)c1ccc(C(=O)N[C@@H](CCC(=O)O)C(=O)O)cc1 [METHOTREXATE]
Log CR (CHO [7]): 0.04 | Log CR (L1210 [3]): 2.55 | logD (physchem): -2.52

BLEOMYCIN [listing 1 of 2 here]
Log CR (L1210 [8]): 0.24 | Log CR (CHO [9]): 0

COc1cccc2c1C(=O)c1c(O)c3c(c(O)c1C2=O)C[C@@](O)(C(C)=O)C[C@@H]3O[C@H]1C[C@H](N)[C@H](O)[C@H](C)O1 [DAUNORUBICIN]
Log CR (CCRF-CEM [4]): 1.2

C[n+]1c2cc(N)ccc2cc2ccc(N)cc21.[Cl-] [EUFLAVINE]
Log CR (CHO [6]): 0.84 | logD (physchem): 1.6

CC1(C)N=C(N)N=C(N)N1c1cccc(C(N)=O)c1
logD [10]: -4.49 | Log CR (L1210 [5]): 1.85

CC[C@]1(O)C[C@H]2CN(CCc3c([nH]c4ccccc34)[C@@](C(=O)OC)(c3cc4c(cc3OC)N(C=O)[C@H]3[C@@](O)(C(=O)OC)[C@H](OC(C)=O)[C@]5(CC)C=CCN6CC[C@]43[C@@H]65)C2)C1 [VINCRISTINE]
Log CR (CCRF-CEM [4]): 2.76 | logD (physchem): 2.57

C[C@]12CC[C@H]3[C@@H](CCC4=CC(=O)CC[C@@]43C)[C@@H]1CC[C@@H]2C(=O)CO [DESOXYCORTICOSTERONE]
Log sensitivity (CHRC5 cell line [2]): 1 | logD (physchem): 3.08

CC[C@]1(O)C[C@@H]2CN(CCc3c([nH]c4ccccc34)[C@@](C(=O)OC)(c3cc4c(cc3OC)N(C)[C@H]3[C@@](O)(C(N)=O)[C@H](O)[C@]5(CC)C=CCN6CC[C@]43[C@@H]65)C2)C1 [VINDESINE]
Log CR (CCRF-CEM [4]): 3 | logD (physchem): 0.67

COc1cc([C@@H]2c3cc4c(cc3[C@@H](O[C@@H]3O[C@@H]5CO[C@@H](c6cccs6)O[C@H]5[C@H](O)[C@H]3O)[C@H]3COC(=O)[C@H]23)OCO4)cc(OC)c1O [TENIPOSIDE]
Log CR (CCRF-CEM [11]): 1.56 | logD (physchem): 1.22

COc1cc2c(c(OC)c1OC)-c1ccc(OC)c(=O)cc1[C@@H](NC(C)=O)CC2 [COLCHICINE]
Log CR (CCRF-CEM [4]): 1.08 | Log CR (CHO [12]): 2.26 | logD (physchem): 1.03

COc1ccc(OC)c(Cc2cnc3nc(N)nc(N)c3c2C)c1 [PIRITREXIM]
Log CR (L1210 [13]): 1.89 | logD (physchem): 1.77

CC[C@]1(O)C[C@@H]2CN(CCc3c([nH]c4ccccc34)[C@@](C(=O)OC)(c3cc4c(cc3OC)N(C)[C@H]3[C@@](O)(C(=O)OC)[C@H](OC(C)=O)[C@]5(CC)C=CCN6CC[C@]43[C@@H]65)C2)C1 [VINBLASTINE]
Log CR (CCRF-CEM [4]): 1.28

Nc1ccc2cc3ccc(N)cc3nc2c1 [PROFLAVINE]
Log CR (CHO [7]): 0.46 | Log CR (CHO [6]): 0.6 | logD (physchem): 1.1

O=P1(N(CCCl)CCCl)NCCCO1 (configuration not stated) [CYCLOPHOSPHAMIDE ANHYDROUS]
Log sensitivity (CHRC5 cell line [2]): 0.52 | logD (physchem): 0.63

COc1cc(NCc2ccc3nc(N)nc(N)c3c2C)cc(OC)c1OC [TRIMETREXATE]
Log CR (L1210 [13]): 1.75 | logD (physchem): 0.84

BLEOMYCIN [listing 2 of 2 here]
logD [10]: -2.38

COc1cc([C@@H]2c3cc4c(cc3[C@H](O)[C@H]3COC(=O)[C@H]23)OCO4)cc(OC)c1OC [PODOFILOX]
Log CR (CCRF-CEM [14]): 0.07 | logD (physchem): 2.01

CC(=O)[C@H]1CC[C@H]2[C@@H]3CCC4CC(=O)CC[C@]4(C)[C@H]3CC[C@]12C (some centres not stated)
Log sensitivity (CHRC5 cell line [2]): 1 | logD (physchem): 3.99

COc1ccc(C[C@H](N)C(=O)N[C@H]2[C@@H](O)[C@H](n3cnc4c(N(C)C)ncnc43)O[C@@H]2CO)cc1 [PUROMYCIN]
Log CR (L1210 [5]): 1.82 | Log CR (CHO [12]): 2.02 | logD (physchem): 0.86

CC(C)NCC(O)COc1cccc2ccccc12 (configuration not stated) [PROPRANOLOL]
Log sensitivity (CHRC5 cell line [1]): 0.7

CCCCNc1ccc(C(=O)OCCN(C)C)cc1 [TETRACAINE]
logD [10]: 1 | Log sensitivity (CHRC5 cell line [1]): 0.7

C=C1[C@@H](C)[C@H]2[C@H](Cc3ccccc3)NC(=O)[C@]23OC(=O)/C=C/[C@H](O)CCC[C@@H](C)C/C=C/[C@H]3[C@@H]1O [CYTOCHALASIN B]
Log CR (CHO [12]): 1.04 | logD (physchem): 3.37

Sc1ncnc2nc[nH]c12 [MERCAPTOPURINE ANHYDROUS]
Log CR (CHO [7]): -0.3 | Log CR (L1210 [13]): 0.6 | logD (physchem): 0.01

Cc1nc(N)nc(N)c1-c1ccc(Cl)c(Cl)c1 [METOPRINE]
Log CR (L1210 [13]): 1.7 | logD (physchem): 2.56

COc1cccc2c1C(=O)c1c(O)c3c(c(O)c1C2=O)C[C@@](O)(C(=O)CO)C[C@@H]3O[C@H]1C[C@H](N)[C@H](O)[C@H](C)O1 [DOXORUBICIN]
Log CR (CCRF-CEM [4]): 1.46 | Log CR (CHO [12]): 1.4 | logD (physchem): 0.1

CC[C@H]1OC(=O)[C@H](C)[C@@H](O[C@H]2C[C@@](C)(OC)[C@@H](O)[C@H](C)O2)[C@H](C)[C@@H](O[C@@H]2O[C@H](C)C[C@H](N(C)C)[C@H]2O)[C@](C)(O)C[C@@H](C)C(=O)[C@H](C)[C@@H](O)[C@]1(C)O [ERYTHROMYCIN]
Log CR (CHO [12]): 0.7 | logD (physchem): 1.26

O=c1[nH]cc(F)c(=O)[nH]1 [FLUOROURACIL]
Log CR (L1210 [5]): -0.04 | Log CR (CHO [12]): 0 | logD (physchem): -0.89

— ChEMBL document CHEMBL1124835, “Structure-activity relationships of antineoplastic agents in multidrug resistance” (J Med Chem, 1990)
